Reference: ChEMBL document CHEMBL3885861, “Open TG-GATES”

Species on record: Rattus norvegicus
Experiment: Open TG-GATES - Regimen: Single
Assay type: toxicity, organism-based, Sprague-Dawley
Design: regimen Single, gender Male, age 6 weeks
Settings: in vivo, po, 0 mg/kg, route gavage, dose level Control; for APTT / Bas / Eos / Fbg / Hb / Ht / Lym / MCH / MCHC / MCV / Mono / Neu / PT / Plat / RBC / Ret / WBC: tissue Blood; for KIDNEY_L / KIDNEY_R / KIDNEY_TOTAL: tissue Kidney; for LIVER: tissue Liver; for A/G / ALP / ALT / AST / BUN / CRE / Ca / Cl / DBIL / GLC / IP / K / LDH / Na / PL / RALB / TBIL / TC / TG / TP / gamma-GTP: tissue Plasma

## CCCc1cc(=O)[nH]c(=S)[nH]1 [PROPYLTHIOURACIL]
3 h
  TERMINAL_BW: 182.7 g
  APTT: 15.8 s
  Bas: 0%
  Eos: 1%
  Fbg: 217.4 mg/dL
  Hb: 13.2 g/dL
  Ht: 39.8%
  Lym: 78.6%
  MCH: 22.3 pg
  MCHC: 33.3%
  MCV: 67.1 fL
  Mono: 6.2%
  Neu: 14.6%
  PT: 12.6 s
  Plat: 108.3 x10_4/uL
  RBC: 593.2 x10_4/ul
  Ret: 10.7%
  WBC: 86.3 x10_2/uL
  KIDNEY_L: 0.8 g
  KIDNEY_R: 0.8 g
  KIDNEY_TOTAL: 1.7 g
  LIVER: 8.7 g
  A/G: 2
  ALP: 886.8 IU/L
  ALT: 39.6 IU/L
  AST: 69.8 IU/L
  BUN: 13.2 mg/dL
  CRE: 0.4 mg/dL
  Ca: 11 mg/dL
  Cl: 105 meq/L
  DBIL: 0.024 mg/dL
  GLC: 192.6 mg/dL
  IP: 9.9 mg/dL
  K: 5 meq/L
  LDH: 87.6 IU/L
  Na: 138.6 meq/L
  PL: 140.2 mg/dL
  RALB: 3.6 g/dL
  TBIL: 0.3 mg/dL
  TC: 82.4 mg/dL
  TG: 37.2 mg/dL
  TP: 5.5 g/dL
  gamma-GTP: 0.8 IU/L
6 h
  TERMINAL_BW: 178.3 g
  APTT: 16.1 s
  Bas: 0%
  Eos: 0%
  Fbg: 206.8 mg/dL
  Hb: 13 g/dL
  Ht: 39.3%
  Lym: 80%
  MCH: 21.5 pg
  MCHC: 33.1%
  MCV: 64.8 fL
  Mono: 6.4%
  Neu: 13.6%
  PT: 12.6 s
  Plat: 107.1 x10_4/uL
  RBC: 606.2 x10_4/ul
  Ret: 10.4%
  WBC: 111.4 x10_2/uL
  KIDNEY_L: 0.8 g
  KIDNEY_R: 0.8 g
  KIDNEY_TOTAL: 1.6 g
  LIVER: 7.9 g
  A/G: 2.2
  ALP: 853.4 IU/L
  ALT: 34.2 IU/L
  AST: 66.8 IU/L
  BUN: 11.8 mg/dL
  CRE: 0.5 mg/dL
  Ca: 10.7 mg/dL
  Cl: 105.2 meq/L
  DBIL: 0.046 mg/dL
  GLC: 182 mg/dL
  IP: 10 mg/dL
  K: 5 meq/L
  LDH: 82.2 IU/L
  Na: 137.6 meq/L
  PL: 136.6 mg/dL
  RALB: 3.6 g/dL
  TBIL: 0.3 mg/dL
  TC: 80 mg/dL
  TG: 33.4 mg/dL
  TP: 5.4 g/dL
  gamma-GTP: 1.8 IU/L
9 h
  TERMINAL_BW: 175.9 g
  APTT: 16 s
  Bas: 0%
  Eos: 1.2%
  Fbg: 215.4 mg/dL
  Hb: 13.1 g/dL
  Ht: 39.7%
  Lym: 77.8%
  MCH: 22 pg
  MCHC: 33.1%
  MCV: 66.2 fL
  Mono: 6.2%
  Neu: 15.2%
  PT: 12.5 s
  Plat: 107.3 x10_4/uL
  RBC: 599.2 x10_4/ul
  Ret: 10.2%
  WBC: 95.1 x10_2/uL
  KIDNEY_L: 0.8 g
  KIDNEY_R: 0.9 g
  KIDNEY_TOTAL: 1.7 g
  LIVER: 7.6 g
  A/G: 2
  ALP: 741.2 IU/L
  ALT: 33.6 IU/L
  AST: 61.8 IU/L
  BUN: 13.8 mg/dL
  CRE: 0.5 mg/dL
  Ca: 10.6 mg/dL
  Cl: 107.4 meq/L
  DBIL: 0.006 mg/dL
  GLC: 195.4 mg/dL
  IP: 11.1 mg/dL
  K: 5.2 meq/L
  LDH: 102.4 IU/L
  Na: 139.8 meq/L
  PL: 132.2 mg/dL
  RALB: 3.6 g/dL
  TBIL: 0.4 mg/dL
  TC: 76 mg/dL
  TG: 35.6 mg/dL
  TP: 5.5 g/dL
  gamma-GTP: 2.2 IU/L
24 h
  TERMINAL_BW: 192.6 g
  APTT: 16.1 s
  Bas: 0%
  Eos: 1%
  Fbg: 211.2 mg/dL
  Hb: 13.2 g/dL
  Ht: 40%
  Lym: 76.6%
  MCH: 21.6 pg
  MCHC: 33%
  MCV: 65.5 fL
  Mono: 9%
  Neu: 13.6%
  PT: 12.4 s
  Plat: 104.6 x10_4/uL
  RBC: 611.6 x10_4/ul
  Ret: 9.6%
  WBC: 123.5 x10_2/uL
  KIDNEY_L: 0.8 g
  KIDNEY_R: 0.9 g
  KIDNEY_TOTAL: 1.7 g
  LIVER: 9.1 g
  A/G: 2
  ALP: 974.2 IU/L
  ALT: 46.2 IU/L
  AST: 70.2 IU/L
  BUN: 19.2 mg/dL
  CRE: 0.6 mg/dL
  Ca: 10.9 mg/dL
  Cl: 105.2 meq/L
  DBIL: 0.016 mg/dL
  GLC: 196.6 mg/dL
  IP: 7.9 mg/dL
  K: 5 meq/L
  LDH: 86.6 IU/L
  Na: 138.6 meq/L
  PL: 152.8 mg/dL
  RALB: 3.7 g/dL
  TBIL: 0.3 mg/dL
  TC: 83.2 mg/dL
  TG: 96.2 mg/dL
  TP: 5.6 g/dL
  gamma-GTP: 2.4 IU/L
